Laboratory results reported in US9862724B2, “Pyrazolo[1,5-a]pyrimidine-based compounds, compositions comprising them, and methods of their use” (LEXICON PHARMACEUTICALS, INC., priority 2013, dated 2018).
Read-outs that look alike come from different tables or passages of the source.

How the values were obtained:
AAK1 = target: T1, AAK1 (Homo sapiens, UniProt Q2M2I8); assay: HEK281 cell-based assay (phospho-mu2 Western blot in transfected HEK293F cells); details: HEK293F cells transfected with human AAK1 and AP2M1, 3 hours, read-out: CBA IC50
T1 construct: expressed in transfected cells; host or cells: HEK293F
Method: HEK293F cells were cultured in media containing DMEM (Gibco, cat. #11965), 10% FBS (SAFC Biosciences, cat. #12103C), 1×GPS (glutamine, penicillin and streptomycin). On day one, cells were plated on a 10 cm dish so that they are ˜80% confluent at time of transfection. Roughly 12 million cells were in a 10 cm dish at time of transfection. On day two, each dish was transfected with 48 ug DNA and 144 ul Lipofectamine 2000 (Invitrogen, cat.#11668-019). The DNA was comprised of a mixture (per 10 cm dish) containing 3 ug AAK1/HA/pIRES (full length human, NCBI accession no. NP_055726.2), 45 μg Flag/AP2MI/pcDNA (full length human), and 1.5 ml OPTI-MEM. The Lipofectamine 2000 is made up of a mixture (per 10 cm dish) containing 144 μl Lipofectamine 2000 and 1.5 ml OPTI-MEM. Each mixture was transferred to individual 15 ml tubes and incubated at room temperature for 5 minutes, and then the two mixes were combined and incubated at room temperature for 20 minutes. Growth media was then aspirated from each 10 cm plate and replaced with 10 ml of DMEM+10% FBS (no GPS). Finally, 3 ml DNA/Lipofectamine mix was added to each 10 cm dish and mix gently followed by incubate of plate overnight at 37° C. and 5% CO2.
On day three, compounds were diluted in 100% DMSO at 1000× final concentration, followed by 3-fold serial dilutions for a total of 5 concentrations tested. Four compounds were tested per 10 cm dish. One ul of each compound dilution was then pipetted into a deep-well, 96-well plate, followed by addition of 500 μl DMEM+0.5% FBS into each well for a 2× final concentration of each compound. Cells were resuspended in a 10 cm dish by simple pipetting (HEK293 cells come off the plate that easy at this point) and then transferred to a 50 ml conical tube and pelleted by centrifugation at 1000 rpm for 5 min. Cell pellets were then resuspended in 2.75 ml DMEM+0.5% FBS per 10 cm dish and 100 μl of cell suspension transferred into each well of 96-well TC plate. Finally, 100 μl of 2× compound diluted in DMEM+0.5% FBS was then added into wells containing cell suspension for a 1× final concentration. Plates were then incubated at 37° C. and 5% CO2 for 3 hours followed by transferring of cell suspensions from each well into 12-tube PCR strips. The PCR strips were spun in a tip rack at 1000 rpm for 5 minutes to pellet cells and media was then removed by pipetting without disturbing the cell pellet.
To prepare for Western Blot analysis, cell pellets were resuspend in 40 ul 1×LDS-PAGE sample buffer (Invitrogen, cat.# NP0008)+2× Halt phophatase and protease inhibitor cocktail (Thermo Scientific, cat.#1861284), followed by sonicating each with microtip sonicator set at 5 for 8-10 seconds. Five ul of 10× NuPage Sample Reducing Agent (with […]) was to each sample followed by heat denaturing at 70 C for 10 min on PCR machine. A total of 10 μl per sample was loaded into each lane of a 4-20% Tris-Glycine Criterion 26-well gel (Biorad, cat.#345-0034) for the phospho-mu2 blot and 10 μl per lane in a 4-12% Bis-Tris (+MES buffer) NuPAGE 26-well gel (Invitrogen, cat.# WG1403BX10) for the mu2 blot. For controls, 2 ng of phospho-mu2 or 20 ng mu2/Flag proteins were loaded in the last well of each gel. After SDS-PAGE, samples on each gel were transferred to PVDF membrane using an iBlot and membranes were blocked for one hour in TBST+5% milk, followed by wash 3× for 5-10 min with TBST. Criterion gels were probed with rabbit anti-phospho-mu2 (1:5000; a rabbit polyclonal antibody produced by New England Peptide and affinity purified at Lexicon) in TBST+5% BSA, whereas, NuPAGE gels were probed with mouse anti-Flag (1:500; Sigma, cat.# F1804) in TBST+5% milk, and these primary antibodies were incubated overnight at 4° C. on a rocker. […]

[1] = target: T2, AAK1 (full-length human protein) (Homo sapiens, UniProt Q2M2I8); assay: P81 filter plate assay; format: biochemical; details: 0.2 nM 2x AAK1, Mu2 substrate, 33P-ATP
T2 construct: NP_055726.2
Method: Compounds were serially diluted into a Labcyte LDV plate (Labcyte, cat# LP-0200) using a Mutiprobe (PerkinElmer) and Biomek FX (Beckman Coulter) so that the highest compound concentration was at 96 μM. Compounds were then pinged (75 nL per well) into a Greiner 384-well reaction plate (Greiner, #781076) using an ECHO 550 Liquid Handler (Labcyte). A total of 12 μl reaction buffer (IMAP buffer containing Tween and DTT, from Molecular Devices) was then added to each well of columns 1 and 13 for the negative controls and 12 μl of 2×AAK1 (0.2 nM full-length human protein, NCBI accession no. NP_055726.2) was added to the remaining wells. Enzyme was then pre-incubated with compound for 10 minutes at RT. Reactions were initiated upon Minitrak (PerkinElmer) addition of 12 μl substrate mix containing 2×Mu2 (0.2 μM, full length human protein), 2× cold ATP (2 μM), and 1.3 μCi of hot ^33P-ATP. Reactions proceeded for one hour at RT. Meanwhile, Millipore 384-well P81 filter plates (Millipore, catalog # MZPHN0W10) were placed on a plate washer (Zoom ZW, from Titertek) and pre-wet with 50 μl […] phosphoric acid. Kinase reactions were then stopped upon addition of 24 μl of 2% phosphoric acid to each well and the Minitrak was then used to transfer 40 μl from each well into the pre-wet Millipore 384-well P81 filter plates. Reaction mixtures were incubated for 10 minutes at room temperature in the P81 plates, followed by washing five times with 100 μl/well of 1% phosphoric acid using the Zoom filter washer. The bottom of each filter plate was sealed followed by addition of 20 μl Microscint 40 to each well, sealing the top of the plates with Flashplate cover, and then waiting one hour until reading on the TopCount (PerkinElmer).

PC12 cells = details: Kuai et al. 2011; cited from earlier work

T2 sequence (Q2M2I8 1-863 isoform Q2M2I8-2): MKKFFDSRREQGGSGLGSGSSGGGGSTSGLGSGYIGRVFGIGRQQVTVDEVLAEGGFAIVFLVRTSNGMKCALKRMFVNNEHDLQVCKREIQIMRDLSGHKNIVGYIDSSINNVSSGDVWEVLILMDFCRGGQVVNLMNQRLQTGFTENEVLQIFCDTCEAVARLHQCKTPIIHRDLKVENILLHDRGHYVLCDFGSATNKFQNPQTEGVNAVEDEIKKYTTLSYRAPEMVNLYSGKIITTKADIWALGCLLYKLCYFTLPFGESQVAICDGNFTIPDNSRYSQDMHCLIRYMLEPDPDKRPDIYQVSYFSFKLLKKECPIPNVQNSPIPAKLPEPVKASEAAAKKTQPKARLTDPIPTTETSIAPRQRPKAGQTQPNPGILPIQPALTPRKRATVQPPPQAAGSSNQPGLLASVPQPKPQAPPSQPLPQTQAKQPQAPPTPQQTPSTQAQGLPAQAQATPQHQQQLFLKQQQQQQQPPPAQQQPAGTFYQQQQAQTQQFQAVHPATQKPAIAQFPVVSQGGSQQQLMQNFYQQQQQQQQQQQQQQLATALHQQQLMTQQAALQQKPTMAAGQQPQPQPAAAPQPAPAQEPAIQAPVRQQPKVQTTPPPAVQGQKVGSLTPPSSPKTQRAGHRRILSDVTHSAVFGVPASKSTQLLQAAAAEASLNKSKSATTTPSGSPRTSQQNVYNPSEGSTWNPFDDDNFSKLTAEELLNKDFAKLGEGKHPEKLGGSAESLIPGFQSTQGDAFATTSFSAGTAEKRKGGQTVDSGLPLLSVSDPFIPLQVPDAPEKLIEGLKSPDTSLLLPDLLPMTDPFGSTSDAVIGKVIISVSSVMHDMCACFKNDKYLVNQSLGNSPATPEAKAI
T1 sequence (Q2M2I8 1-863 isoform Q2M2I8-2): as above

Structure (SMILES) | IC50 (AAK1; class symbols) | IC50 ([1]; class symbols) | Effect on Neuregulin-1 induced neurite outgrowth (PC12 cells) | IC50 ([1]; numeric bounds) | IC50 (AAK1; numeric bounds)
COc1ncccc1-c1cnn2ccc(-c3ccn(CCC(F)(F)F)c(=O)c3)nc12 [4-(3-(2-methoxypyridin-3-yl)pyrazolo[1,5-a]pyrimidin-5-yl)-1-(3,3,3-trifluoropropyl)pyridin-2(1H)-one] | ≤ 10 nM | ≤ 10 nM | – | – | –
COc1ccc(F)cc1-c1cnn2ccc(-c3ccn(CCC(F)(F)F)c(=O)c3)nc12 [4-(3-(5-fluoro-2-methoxyphenyl)pyrazolo[1,5-a]pyrimidin-5-yl)-1-(3,3,3-trifluoropropyl)pyridin-2(1H)-one] | ≤ 10 nM | ≤ 100 nM | – | – | –
COc1ccc(F)cc1-c1cnn2ccc(-c3ccn(CC(C)C)c(=O)c3)nc12 [4-(3-(5-fluoro-2-methoxyphenyl)pyrazolo[1,5-a]pyrimidin-5-yl)-1-isobutylpyridin-2(1H)-one] | ≤ 10 nM | ≤ 10 nM | – | – | –
COc1ccc(F)cc1-c1cnn2ccc(-c3ccn(CCC(C)C)c(=O)c3)nc12 [4-(3-(5-fluoro-2-methoxyphenyl)pyrazolo[1,5-a]pyrimidin-5-yl)-1-isopentylpyridin-2(1H)-one] | ≤ 10 nM | ≤ 10 nM | – | – | –
COc1ncc(F)cc1-c1cnn2ccc(-c3ccn(CCC(F)(F)F)c(=O)c3)nc12 [4-(3-(5-fluoro-2-methoxypyridin-3-yl)pyrazolo[1,5-a]pyrimidin-5-yl)-1-(3,3,3-trifluoropropyl)pyridin-2(1H)-one] | ≤ 10 nM | ≤ 10 nM | – | – | –
COc1ncc(F)cc1-c1cnn2ccc(-c3ccn(CCC(C)C)c(=O)c3)nc12 [4-(3-(5-fluoro-2-methoxypyridin-3-yl)pyrazolo[1,5-a]pyrimidin-5-yl)-1-isopentylpyridin-2(1H)-one] | ≤ 10 nM | ≤ 10 nM | – | – | –
CC(C)CCn1ccc(-c2ccn3ncc(Br)c3n2)cc1=O [4-(3-bromopyrazolo[1,5-a]pyrimidin-5-yl)-1-isopentylpyridin-2(1H)-one] | ≤ 10 nM | ≤ 10 nM | – | – | –
CC(C)CCn1ccc(-c2ccn3ncc(Cl)c3n2)cc1=O [4-(3-chloropyrazolo[1,5-a]pyrimidin-5-yl)-1-isopentylpyridin-2(1H)-one] | ≤ 10 nM | ≤ 100 nM | – | – | –
CC(C)CCn1ccc(-c2ccn3ncc(I)c3n2)cc1=O [4-(3-iodopyrazolo[1,5-a]pyrimidin-5-yl)-1-isopentylpyridin-2(1H)-one] | ≤ 10 nM | ≤ 10 nM | – | – | –
COc1ncccc1-c1cnn2ccc(-c3ccnc(OC(C)C)c3)nc12 [5-(2-isopropoxypyridin-4-yl)-3-(2-methoxypyridin-3-yl)pyrazolo[1,5-a]pyrimidine] | ≤ 10 nM | ≤ 100 nM | – | – | –
COC(=O)[C@@]1(O)C[C@H]2O[C@]1(C)n1c3ccccc3c3c4c(c5c6ccccc6n2c5c31)C(=O)NC4 [K252a] | – | – | potentiation of Neuregulin-1 induced neurite outgrowth | – | –
COc1ncccc1-c1cnn2ccc(C3=CCN(C(=O)OC(C)C)CC3)nc12 [isopropyl 4-(3-(2-methoxypyridin-3-yl)pyrazolo[1,5-a]pyrimidin-5-yl)-5,6-dihydropyridine-1(2H)-carboxylate] | ≤ 10 nM | ≤ 10 nM | – | – | –
COc1ncccc1-c1cnn2ccc(C3CCN(C(=O)OC(C)C)CC3)nc12 [isopropyl 4-(3-(2-methoxypyridin-3-yl)pyrazolo[1,5-a]pyrimidin-5-yl)piperidine-1-carboxylate] | ≤ 10 nM | – | – | > 300 nM | –
CC(C)OC(=O)N(C)CCCc1ccn2nccc2n1 [isopropyl methyl(3-(pyrazolo[1,5-a]pyrimidin-5-yl)propyl)carbamate] | – | – | – | > 100 nM | > 300 nM
